Data: patent US20250221964A1, “Substituted Isoxazoles as Selective Nav1.7 Inhibitors for Pain Treatment and Method of Pain Treatment” (Board of Regents, The University of Texas System, priority 2021, published 2025)
Where two headings read alike, the source gives them in different places. Blank lines part the entries; values can stand above or below the compound they belong to.

Assays:
[1] = test system: muscarinic receptors in the rat cerebral cortex; details: cited from earlier work
[2] = test system: mouse automated formalin model; assay: mouse automated formalin test; format: in vivo; details: 135 mg/kg p.o.
Description: (§1) Compound 100 was administered using the mouse automated formalin model at a dosage of 135 mg/kg p.o. Dosage was selected based upon projection from mouse exposure at 5 mg/kg.

[3] = ADME assays (solubility, CYP inhibition, in vitro metabolism); details: in words
hNav1.5 = hNav1.5 (Homo sapiens, UniProt Q14524); assay: Nav1.5 in vitro inhibition assay; format: cell-based; details: in vitro testing
hNav1.7 = hNav1.7 (Homo sapiens, UniProt Q15858); assay: Nav1.7 in vitro inhibition assay; format: cell-based; details: for subtype selectivity (Nav1.7 vs. Nav1.5): in words
[4] = mouse exposure / pharmacokinetics in formalin study (plasma, brain); format: in vivo; details: for concentration at 0.25 hr: pre-tx time 0.25 hr, unbound
Description: as §1

[5] = in vitro testing, read-out: potency against Nav1.7
[6] = 135 mg/kg p.o., 0.25 hr, versus FI IC50
[7] = 135 mg/kg p.o., 0.25 hr, versus SI IC50

hNav1.7, sequence (Q15858 whole entry): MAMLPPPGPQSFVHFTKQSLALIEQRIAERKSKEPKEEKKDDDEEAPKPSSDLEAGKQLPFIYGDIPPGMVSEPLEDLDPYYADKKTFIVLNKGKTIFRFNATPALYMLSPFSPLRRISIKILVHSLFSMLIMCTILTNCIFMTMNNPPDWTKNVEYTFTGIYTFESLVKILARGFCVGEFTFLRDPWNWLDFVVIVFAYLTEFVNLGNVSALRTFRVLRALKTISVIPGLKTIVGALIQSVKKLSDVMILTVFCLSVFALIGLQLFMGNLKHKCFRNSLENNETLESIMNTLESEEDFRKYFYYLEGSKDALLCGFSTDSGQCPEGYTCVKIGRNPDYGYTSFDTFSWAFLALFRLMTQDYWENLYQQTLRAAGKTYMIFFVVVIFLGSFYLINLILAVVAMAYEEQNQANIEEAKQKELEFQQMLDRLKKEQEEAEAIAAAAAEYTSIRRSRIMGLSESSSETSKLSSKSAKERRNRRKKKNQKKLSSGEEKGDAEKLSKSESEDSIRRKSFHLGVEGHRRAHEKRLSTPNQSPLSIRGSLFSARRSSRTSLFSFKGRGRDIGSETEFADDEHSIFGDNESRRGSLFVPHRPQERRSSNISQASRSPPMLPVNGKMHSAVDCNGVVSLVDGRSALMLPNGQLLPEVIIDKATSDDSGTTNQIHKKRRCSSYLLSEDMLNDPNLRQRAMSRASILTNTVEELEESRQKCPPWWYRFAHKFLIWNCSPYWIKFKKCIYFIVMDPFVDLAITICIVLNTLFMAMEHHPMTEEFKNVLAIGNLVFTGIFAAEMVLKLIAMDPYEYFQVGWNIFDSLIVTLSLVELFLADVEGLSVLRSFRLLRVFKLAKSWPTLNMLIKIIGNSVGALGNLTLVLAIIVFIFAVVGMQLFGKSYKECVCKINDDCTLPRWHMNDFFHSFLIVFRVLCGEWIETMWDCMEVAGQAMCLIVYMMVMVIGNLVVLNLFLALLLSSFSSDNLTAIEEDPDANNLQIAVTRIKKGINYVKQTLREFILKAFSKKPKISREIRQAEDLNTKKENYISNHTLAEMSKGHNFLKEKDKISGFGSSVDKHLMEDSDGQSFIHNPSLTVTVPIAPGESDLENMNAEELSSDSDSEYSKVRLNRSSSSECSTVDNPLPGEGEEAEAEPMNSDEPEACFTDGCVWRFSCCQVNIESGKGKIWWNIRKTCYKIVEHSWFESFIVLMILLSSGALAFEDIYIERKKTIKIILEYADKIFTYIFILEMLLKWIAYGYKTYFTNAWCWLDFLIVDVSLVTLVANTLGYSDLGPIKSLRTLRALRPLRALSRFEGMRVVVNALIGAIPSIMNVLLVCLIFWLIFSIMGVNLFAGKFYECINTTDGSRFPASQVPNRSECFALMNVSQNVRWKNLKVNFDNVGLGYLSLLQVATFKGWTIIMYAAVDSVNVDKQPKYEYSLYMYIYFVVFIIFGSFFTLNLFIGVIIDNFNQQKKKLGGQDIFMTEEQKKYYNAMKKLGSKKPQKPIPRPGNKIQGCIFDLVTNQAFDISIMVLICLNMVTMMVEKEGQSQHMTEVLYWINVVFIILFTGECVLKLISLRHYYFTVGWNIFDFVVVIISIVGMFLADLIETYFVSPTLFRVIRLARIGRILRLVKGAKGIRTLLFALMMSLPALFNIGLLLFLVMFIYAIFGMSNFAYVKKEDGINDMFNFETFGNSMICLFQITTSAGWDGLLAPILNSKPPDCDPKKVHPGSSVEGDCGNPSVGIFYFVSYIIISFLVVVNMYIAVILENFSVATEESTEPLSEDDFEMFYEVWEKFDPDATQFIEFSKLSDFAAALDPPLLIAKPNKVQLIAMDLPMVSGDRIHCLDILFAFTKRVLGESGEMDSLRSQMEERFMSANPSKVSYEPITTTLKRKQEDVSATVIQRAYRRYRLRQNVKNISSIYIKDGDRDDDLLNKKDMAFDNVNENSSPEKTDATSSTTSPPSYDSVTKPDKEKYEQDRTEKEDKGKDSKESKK
hNav1.5, sequence (Q14524 whole entry): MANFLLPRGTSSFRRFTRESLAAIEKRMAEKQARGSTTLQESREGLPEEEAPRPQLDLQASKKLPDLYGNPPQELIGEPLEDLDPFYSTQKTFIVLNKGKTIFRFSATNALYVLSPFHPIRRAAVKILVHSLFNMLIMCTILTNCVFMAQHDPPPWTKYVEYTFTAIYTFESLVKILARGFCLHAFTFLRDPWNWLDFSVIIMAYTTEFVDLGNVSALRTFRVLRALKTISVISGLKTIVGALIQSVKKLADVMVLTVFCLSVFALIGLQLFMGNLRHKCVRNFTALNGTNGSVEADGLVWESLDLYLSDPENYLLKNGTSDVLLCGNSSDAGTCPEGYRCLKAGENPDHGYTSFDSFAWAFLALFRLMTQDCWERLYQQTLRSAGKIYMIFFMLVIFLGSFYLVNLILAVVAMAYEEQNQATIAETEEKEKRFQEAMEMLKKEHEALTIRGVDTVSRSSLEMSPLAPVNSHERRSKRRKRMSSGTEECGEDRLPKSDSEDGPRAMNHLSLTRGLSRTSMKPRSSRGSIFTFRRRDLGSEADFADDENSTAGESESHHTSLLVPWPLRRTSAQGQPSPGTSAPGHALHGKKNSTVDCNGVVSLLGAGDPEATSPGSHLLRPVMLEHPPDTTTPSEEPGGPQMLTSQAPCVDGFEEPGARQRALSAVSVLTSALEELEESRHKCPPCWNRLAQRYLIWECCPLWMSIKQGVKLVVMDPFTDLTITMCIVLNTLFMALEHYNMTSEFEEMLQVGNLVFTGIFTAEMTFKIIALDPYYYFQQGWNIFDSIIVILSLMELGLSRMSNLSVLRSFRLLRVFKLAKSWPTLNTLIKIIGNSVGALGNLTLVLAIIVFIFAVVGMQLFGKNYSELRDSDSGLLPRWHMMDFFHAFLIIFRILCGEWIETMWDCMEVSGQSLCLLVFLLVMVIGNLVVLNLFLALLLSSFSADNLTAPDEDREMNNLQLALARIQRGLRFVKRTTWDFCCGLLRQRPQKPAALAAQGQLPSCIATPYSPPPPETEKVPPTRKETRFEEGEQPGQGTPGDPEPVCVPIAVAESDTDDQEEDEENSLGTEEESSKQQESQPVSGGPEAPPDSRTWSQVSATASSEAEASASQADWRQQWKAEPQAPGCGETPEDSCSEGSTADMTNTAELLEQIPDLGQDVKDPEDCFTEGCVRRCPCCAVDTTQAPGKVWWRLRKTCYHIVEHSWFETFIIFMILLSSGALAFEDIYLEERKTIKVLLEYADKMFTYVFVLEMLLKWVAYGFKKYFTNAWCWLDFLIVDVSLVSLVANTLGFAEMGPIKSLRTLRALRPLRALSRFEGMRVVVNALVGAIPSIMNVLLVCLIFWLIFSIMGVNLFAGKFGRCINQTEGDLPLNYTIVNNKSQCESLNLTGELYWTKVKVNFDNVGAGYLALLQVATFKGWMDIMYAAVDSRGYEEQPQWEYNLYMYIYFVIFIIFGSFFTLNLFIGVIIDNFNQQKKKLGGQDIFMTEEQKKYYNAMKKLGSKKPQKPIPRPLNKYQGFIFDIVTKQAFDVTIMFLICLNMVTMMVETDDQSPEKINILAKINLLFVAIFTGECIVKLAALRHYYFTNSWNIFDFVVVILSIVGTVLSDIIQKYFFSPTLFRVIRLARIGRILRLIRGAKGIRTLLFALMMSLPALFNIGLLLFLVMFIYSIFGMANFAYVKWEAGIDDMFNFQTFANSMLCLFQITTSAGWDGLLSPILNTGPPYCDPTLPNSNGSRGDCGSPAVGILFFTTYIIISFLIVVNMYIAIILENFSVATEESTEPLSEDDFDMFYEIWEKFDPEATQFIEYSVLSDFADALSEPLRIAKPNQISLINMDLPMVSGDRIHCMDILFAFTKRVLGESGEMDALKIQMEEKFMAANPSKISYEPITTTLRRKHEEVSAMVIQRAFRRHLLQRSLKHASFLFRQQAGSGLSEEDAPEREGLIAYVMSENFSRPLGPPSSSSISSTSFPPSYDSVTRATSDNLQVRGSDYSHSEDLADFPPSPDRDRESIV

Structure (SMILES): Cc1scc2c1N(C(=O)CN1CCN(C)CC1)c1ccccc1NC2=O [(−)-isomer, telenzepine]
fold less active than the (+)-isomer [1]: 500 ×

compound profiling in ADME assays [3]: promising | IC50 (hNav1.7; FI, read-out: h1.7 IC50 (FI)): 2020 nM | IC50 (hNav1.7; [5]): 570 nM | Brain TER (FI) [4, 6]: 0.2 (FI) | Plasma TER (FI) [4, 6]: 0.1 (FI) | Brain TER (SI) [4, 7]: 1.8 (SI) | Plasma TER (SI) [4, 7]: 1.2 (SI) | concentration at 0.25 hr ([4]; brain, po, mouse, 135 mg/kg p.o., read-out: Mean Brain, u): 414 nM | Tmax ([4]; in vivo, po, mouse): 15 min | half-life ([4]; in vivo, po, mouse): 66 min | concentration at 0.25 hr ([4]; plasma, po, mouse, 135 mg/kg p.o., read-out: Mean plasma, u): 282 nM
Structure (SMILES): CC(C)(CO)CCCNC(=O)c1cc(-c2ccccc2)on1 [Compound 100]
reduction in late-phase pain-induced reactions [2]: 31.4% | Percent Reversal in Late Phase Formalin ([2]; pre-tx time 0.25 hr): 31.4 ± 5.1% | IC50 (hNav1.5; read-out: Nav1.5 potency): 1900 nM | subtype selectivity (Nav1.7 vs. Nav1.5) (hNav1.7): poor selectivity

IC50 (hNav1.7; [5]): 60 nM
Structure (SMILES): CC(C)(CO)CCCNC(=O)c1noc(-c2ccccc2)c1-c1ccccc1 [Compound 106]
IC50 (hNav1.5; read-out: Nav1.5 IC50): 180 nM | subtype selectivity (Nav1.7 vs. Nav1.5) (hNav1.7): remained poor

Structure (SMILES): CN(CCCC(C)(C)CO)C(=O)c1cc(-c2ccccc2)on1 [Compound 119]
subtype selectivity (Nav1.7 vs. Nav1.5) (hNav1.7): improved

Structure (SMILES): Cc1ccc(F)cc1-c1c(C(=O)NCCCC(C)(C)CO)noc1-c1ccccc1 [Compound 130]
subtype selectivity (Nav1.7 vs. Nav1.5) (hNav1.7): improved
